The record followed here is patent US7807711B2, “Medicinal acidic cannabinoids” (priority 2004, dated 2010).

Molecules are shown by their SMILES. Read-outs that look alike come from different tables or passages of the source.

One experiment deals with T1, recombinant human CB1 (Homo sapiens, UniProt P21554).
T1 construct: expressed in transfected cells; host or cells: Sf9 cells
As to the kind of experiment: biochemical. It is filed as binding.

A further experiment has as its target T2, recombinant human CB2 (Homo sapiens, UniProt P34972).
T2 construct: expressed in transfected cells; host or cells: Sf9 cells
As to the kind of experiment: Competitive receptor binding against tritium labelled CP55,940, CB2.

Experiment [1] relates to mRNA coding for TNF-alpha. As to the kind of experiment: TNF-alpha mRNA level (RT-PCR) in PHA-stimulated PBMC. It is filed as cell-based. The settings on record: PBMC stimulated by PHA, incubation 4 days; relative to β-actine.
The subject of experiment [2] is Experimental Autoimmune Encephalomyelitis. As to the kind of experiment: Mouse model for Experimental Autoimmune Encephalomyelitis. It is filed as in vivo. As to conditions: SJL mice, day 0-20. The method, then:
The effect of purified THC-acid and unheated cannabis extracts were tested in vivo in a mouse model for Experimental Autoimmune Encephalomyelitis.
Between day 0 and day 20 after onset of the disease the mice were treated daily with a specified oral dose of THC-acid or unheated extract according to the following scheme:
Group 1: vehicle (0.2 mL olive oil/day);
Group 2: 1 mg purified THC-acid in 0.2 mL olive oil/day;
Group 3: unheated cannabis extract in 0.2 mL olive oil containing 1 mg THC-acid/day.
1: mild perivascular accumulation
2: mild perivascular accumulation, multi-focal
3: perivascular accumulation, multiple cell layers, multi-focal.

The test system of experiment [3] is mRNA coding for interleukin-10 (IL-10). As to the kind of experiment: IL-10 mRNA level (RT-PCR) in PHA-stimulated PBMC. It is filed as cell-based. As to conditions: PBMC stimulated by PHA, incubation 4 days; relative to β-actine.

T2 sequence (P34972 whole entry): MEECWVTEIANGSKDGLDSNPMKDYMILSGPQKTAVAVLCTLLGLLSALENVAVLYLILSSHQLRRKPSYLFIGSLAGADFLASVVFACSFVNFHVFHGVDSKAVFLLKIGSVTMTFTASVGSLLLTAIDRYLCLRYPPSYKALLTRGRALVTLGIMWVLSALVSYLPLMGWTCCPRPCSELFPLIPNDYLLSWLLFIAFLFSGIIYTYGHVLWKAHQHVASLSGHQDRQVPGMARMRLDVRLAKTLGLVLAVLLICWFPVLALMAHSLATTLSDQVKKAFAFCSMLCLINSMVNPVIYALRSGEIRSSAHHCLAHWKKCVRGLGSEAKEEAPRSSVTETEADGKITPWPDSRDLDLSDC
T1 sequence (P21554 whole entry): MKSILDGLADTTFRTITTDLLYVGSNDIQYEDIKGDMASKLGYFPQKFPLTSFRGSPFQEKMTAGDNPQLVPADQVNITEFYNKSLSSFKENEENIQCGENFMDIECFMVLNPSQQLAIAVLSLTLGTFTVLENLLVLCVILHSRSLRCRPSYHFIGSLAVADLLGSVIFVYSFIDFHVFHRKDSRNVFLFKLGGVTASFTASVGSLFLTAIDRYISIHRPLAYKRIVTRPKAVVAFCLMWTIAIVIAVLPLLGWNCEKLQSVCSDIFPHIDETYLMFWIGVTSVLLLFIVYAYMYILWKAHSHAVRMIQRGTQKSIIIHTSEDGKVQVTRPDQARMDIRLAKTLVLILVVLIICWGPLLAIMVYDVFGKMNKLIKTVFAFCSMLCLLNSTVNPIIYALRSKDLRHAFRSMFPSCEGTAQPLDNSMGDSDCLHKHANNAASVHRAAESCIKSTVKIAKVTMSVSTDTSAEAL

Consider `CCCCCc1cc(O)c2c(c1)OC(C)(C)c1ccc(C)cc1-2` [CBN*, cannabinol, reference compound], for which the equilibrium dissociation constant (Kd) – broadly, the constant that tells how readily two partners part at equilibrium – turned out to be 36 nM on recombinant human CB1 and 17 nM on recombinant human CB2.
As for `CCCCCc1cc2c(c(O)c1C(=O)O)C1C=C(C)CCC1C(C)(C)O2` (centres unmarked) [THC-A, Δ^9-tetrahydrocannabinolic acid], the dissociation constant Kd was greater than 1000 nM at recombinant human CB1 (purified components, Sf9 cells, read-out: Kd CB1) and greater than 1000 nM on recombinant human CB2 (purified components, Sf9 cells, read-out: Kd CB2). Besides, the “level of the pro-inflammatory cytokine TNFα (mRNA)” value in experiment [1] is recorded as “decrease”. Besides, the “number of inflammatory cells in the brain stem compared to vehicle” value in experiment [2] (1 mg THC-acid/day oral in olive oil, sacrificed after 42 days) is on record as “reduced the number of inflammatory cells in the brain stem significantly”. The clinical score result in experiment [2] (1 mg THC-acid/day oral, FIG. 4) is on record as “improved the clinical score significantly”. The “level of the anti-inflammatory cytokine IL-10 (mRNA)” value in experiment [3] is recorded as “increase”.
